# Data taken from ChEMBL document CHEMBL1127291, “Bioreductive markers for hypoxic cells: 2-nitroimidazoles with biotinylated 1-substituents” (J Med Chem, 1994).
# Key:
# [1] = tested on: CaNT; assay: Cytometric distribution of cell nuclei from CaNT tumors treated in mice; type: functional, cell-based; conditions: Mus musculus
# [2] = tested on: CaNT; assay: Cytometric distribution of single cells from CaNT tumors treated in mice with breathing carbogen; type: functional, cell-based; conditions: Mus musculus
# [3] = tested on: CaNT; assay: Cytometric distribution of cell nuclei from CaNT tumors treated in mice with breathing carbogen; type: functional, cell-based; conditions: Mus musculus
# [4] = tested on: CaNT; assay: Cytometric distribution of single cells from CaNT tumors treated in mice; type: functional, cell-based; conditions: Mus musculus
# [5] = tested on: CaNT; assay: Cytometric distribution of cell nuclei from CaNT tumors treated in mice with breathing air; type: functional, cell-based; conditions: Mus musculus
# [6] = tested on: CaNT; assay: Cytometric distribution of single cells from CaNT tumors treated in mice with breathing air; type: functional, cell-based; conditions: Mus musculus
# [7] = Half life evaluated in plasma in vitro at 20 degree Centigrade; type: ADME, cell-free
Compound,Distribution [1] [%],Distribution [2] [%],Distribution [3] [%],Distribution [4] [%],Distribution [5] [%],Distribution [6] [%],half-life [7] [h]
O=C1N[C@H]2[C@H](CS[C@H]2CCCCCn2ccnc2[N+](=O)[O-])N1,0.85,3.4,0.69,1.2,11.7,16.5,–
O=C(CCCC[C@@H]1SC[C@@H]2NC(=O)N[C@@H]21)NCCNC(=O)Cn1ccnc1[N+](=O)[O-],–,–,–,–,–,–,2
